According to publication PMC4113732, “Novel Preclinical and Radiopharmaceutical Aspects of [^68Ga]Ga-PSMA-HBED-CC: A New PET Tracer for Imaging of Prostate Cancer” (Pharmaceuticals, 2014):

Biological target: T1, prostate-specific membrane antigen (PSMA) (Homo sapiens, UniProt Q04609)
T1 construct: gene FOLH1
Assay: competitive radioligand binding on intact PSMA-expressing LNCaP cells against [^[…]]Ga-PSMA-HBED-CC
Format: cell-based

T1 sequence (Q04609 whole entry): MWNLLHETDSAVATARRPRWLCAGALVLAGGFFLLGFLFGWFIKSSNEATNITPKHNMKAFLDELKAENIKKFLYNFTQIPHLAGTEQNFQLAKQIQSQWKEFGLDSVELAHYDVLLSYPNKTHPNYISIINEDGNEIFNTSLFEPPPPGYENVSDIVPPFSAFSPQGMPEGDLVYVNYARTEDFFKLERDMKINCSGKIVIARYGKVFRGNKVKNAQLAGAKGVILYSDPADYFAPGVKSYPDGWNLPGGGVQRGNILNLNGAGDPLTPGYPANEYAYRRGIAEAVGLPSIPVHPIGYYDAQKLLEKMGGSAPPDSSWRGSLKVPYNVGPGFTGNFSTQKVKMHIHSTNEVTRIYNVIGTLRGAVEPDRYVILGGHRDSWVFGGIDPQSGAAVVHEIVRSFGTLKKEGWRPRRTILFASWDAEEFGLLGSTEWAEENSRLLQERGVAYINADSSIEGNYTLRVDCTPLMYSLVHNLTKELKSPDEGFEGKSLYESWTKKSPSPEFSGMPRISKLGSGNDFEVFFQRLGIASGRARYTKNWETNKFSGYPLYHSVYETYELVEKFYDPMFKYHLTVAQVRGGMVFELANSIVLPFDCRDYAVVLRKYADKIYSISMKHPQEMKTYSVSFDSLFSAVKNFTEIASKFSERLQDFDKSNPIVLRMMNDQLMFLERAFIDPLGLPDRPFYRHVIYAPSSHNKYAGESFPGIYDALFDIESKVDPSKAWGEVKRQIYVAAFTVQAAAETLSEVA

Structure (SMILES): O=C(O)CCc1ccc2c(c1)CN1CCN(CC(=O)O)Cc3cc(CCC(=O)NCCCCCC(=O)NCCCC[C@H](NC(=O)N[C@@H](CCC(=O)O)C(=O)O)C(=O)O)ccc3[O][Ga]([O]C(=O)C1)[O]2 [[^natGa]Ga-PSMA-HBED-CC]
- IC50: 24.8 ± 1.2 nM
